The values below come from ChEMBL document CHEMBL5150077, “Identification of TUL01101: A Novel Potent and Selective JAK1 Inhibitor for the Treatment of Rheumatoid Arthritis” (J Med Chem, 2022).

The term Cmax denotes the maximum level reached in the sampled fluid or tissue.

Data set [1] concerns the target ALK tyrosine kinase receptor (Homo sapiens) (UniProt Q9UM73). In words: Inhibition of human ALK assessed as residual activity at 30 uM relative to control.
The target of data set [2] is Cytoplasmic tyrosine-protein kinase BMX (Homo sapiens) (UniProt P51813). Briefly: Inhibition of human BMX assessed as residual activity at 30 uM relative to control.
The target of data set [3] is High affinity nerve growth factor receptor (Homo sapiens) (UniProt P04629). In words: Inhibition of human TRK assessed as residual activity at 30 uM relative to control.
Data set [4] has as its target Receptor-type tyrosine-protein kinase FLT3 (Homo sapiens) (UniProt P36888). Briefly: Inhibition of human FLT3 assessed as residual activity at 30 uM relative to control.
The next data set is filed under the species Homo sapiens. Briefly: Inhibition of human CDK1/Cyclin B assessed as residual activity at 30 uM relative to control.
Data set [5] deals with CDK2/Cyclin A2 (Homo sapiens) (UniProt P24941+P20248). In words: Inhibition of human CDK2/Cyclin A assessed as residual activity at 30 uM relative to control. In kind it is protein-complex assay.
The target of data set [6] is Serine/threonine-protein kinase Chk1 (Homo sapiens) (UniProt O14757). Briefly: Inhibition of human CHK1 assessed as residual activity at 30 uM relative to control.
Data set [7] addresses Serine/threonine-protein kinase MAK (Homo sapiens) (UniProt P20794). In words: Inhibition of human MAK assessed as residual activity at 30 uM relative to control.
Data set [8] concerns the target [Pyruvate dehydrogenase (acetyl-transferring)] kinase isozyme 1, mitochondrial (Homo sapiens) (UniProt Q15118). Briefly: Inhibition of human PDK1 assessed as residual activity at 30 uM relative to control.
Data set [9] deals with Misshapen-like kinase 1 (Homo sapiens) (UniProt Q8N4C8). In words: Inhibition of human MINK assessed as residual activity at 30 uM relative to control.
In data set [10] the target is Serine/threonine-protein kinase 26 (Homo sapiens) (UniProt Q9P289). In words: Inhibition of human MST4 assessed as residual activity at 30 uM relative to control.
Data set [11] deals with Serine/threonine-protein kinase mTOR (Homo sapiens) (UniProt P42345). In words: Inhibition of human mTOR assessed as residual activity at 30 uM relative to control.
The target in data set [12] is Serine/threonine-protein kinase PAK 2 (Homo sapiens) (UniProt Q13177). Briefly: Inhibition of human PAK2 assessed as residual activity at 30 uM relative to control.
Data set [13] in a line: Volume of distribution at steady state in beagle dog at 0.2 mg/kg, iv measured for 24 hrs by LC-MS/MS analysis. Format: ADME, organism-based, Canis lupus familiaris. To be noted: in vivo, read-out: Vdss.
The subject of data set [14] is Rattus norvegicus. Briefly: Antiarthritic activity in adjuvant-induced arthritis rat model assessed as clinical score at 1 mg/kg, po administered twice a day for 14 days starting from day 13 to 27 post immunization and measured every 3 days a week. In kind it is functional. As to conditions: time 14 day.
The test system of data set [15] is Rattus norvegicus. Briefly: Antiarthritic activity in adjuvant-induced arthritis rat model assessed as clinical score at 3 mg/kg, po administered twice a day for 14 days starting from day 13 to 27 post immunization and measured every 3 days a week. In kind it is functional. As to conditions: time 14 day.
In data set [16] the test system is Rattus norvegicus. In words: Antiarthritic activity in adjuvant-induced arthritis rat model assessed as clinical score at 30 mg/kg, po administered twice a day for 14 days starting from day 13 to 27 post immunization and measured every 3 days a week. Format: functional. As to conditions: time 14 day.
For data set [17], the system named is Rattus norvegicus. In words: Antiarthritic activity in adjuvant-induced arthritis rat model assessed as recovery of body weight at 1 to 30 mg/kg, po administered twice a day for 14 days starting from day 13 to 27 post immunization and measured every 3 days a week. Format: functional, organism-based. As to conditions: dose 1-30 mg/kg, time 14.0 day.
Data set [18] is described as follows: Toxicity in rat assessed as reduction in body weight at 10 mg/kg/day, po administered via gavage once a day pretreated for 9 weeks prior to co-cage and measured on day 74 relative to control. Format: organism-based. Also noted: scale not given: the % may be the effect or the level left. As to conditions: in vivo, 1776 h, time 74 day.
Data set [19] can be described thus: in vivo. As to conditions: beagle, dog, po, 5 mg/kg.
Data set [20] is described as follows: in vivo. As to conditions: beagle, dog, po, 5 mg/kg. The source holds these as a separate data set.

Each structure is given as a SMILES string. Activity calls are given as the source filed them. No cut-off for these calls is given here.

Sequence of Serine/threonine-protein kinase PAK 2 (Homo sapiens) (Q13177 whole entry): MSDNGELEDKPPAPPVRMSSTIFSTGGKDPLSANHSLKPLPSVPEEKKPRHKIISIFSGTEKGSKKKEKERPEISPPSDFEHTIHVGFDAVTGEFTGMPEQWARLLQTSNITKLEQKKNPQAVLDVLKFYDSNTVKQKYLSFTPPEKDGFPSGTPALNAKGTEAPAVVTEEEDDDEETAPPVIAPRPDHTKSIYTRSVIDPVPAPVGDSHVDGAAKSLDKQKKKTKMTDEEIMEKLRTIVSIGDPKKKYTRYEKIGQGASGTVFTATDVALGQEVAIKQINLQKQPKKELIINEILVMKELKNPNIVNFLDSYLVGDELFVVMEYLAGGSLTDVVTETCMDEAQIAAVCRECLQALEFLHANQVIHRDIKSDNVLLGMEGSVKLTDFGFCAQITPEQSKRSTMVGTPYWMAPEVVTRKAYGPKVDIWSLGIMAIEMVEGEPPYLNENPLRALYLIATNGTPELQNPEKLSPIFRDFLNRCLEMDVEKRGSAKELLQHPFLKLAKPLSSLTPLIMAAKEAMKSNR
Sequence of Cytoplasmic tyrosine-protein kinase BMX (Homo sapiens) (P51813 whole entry): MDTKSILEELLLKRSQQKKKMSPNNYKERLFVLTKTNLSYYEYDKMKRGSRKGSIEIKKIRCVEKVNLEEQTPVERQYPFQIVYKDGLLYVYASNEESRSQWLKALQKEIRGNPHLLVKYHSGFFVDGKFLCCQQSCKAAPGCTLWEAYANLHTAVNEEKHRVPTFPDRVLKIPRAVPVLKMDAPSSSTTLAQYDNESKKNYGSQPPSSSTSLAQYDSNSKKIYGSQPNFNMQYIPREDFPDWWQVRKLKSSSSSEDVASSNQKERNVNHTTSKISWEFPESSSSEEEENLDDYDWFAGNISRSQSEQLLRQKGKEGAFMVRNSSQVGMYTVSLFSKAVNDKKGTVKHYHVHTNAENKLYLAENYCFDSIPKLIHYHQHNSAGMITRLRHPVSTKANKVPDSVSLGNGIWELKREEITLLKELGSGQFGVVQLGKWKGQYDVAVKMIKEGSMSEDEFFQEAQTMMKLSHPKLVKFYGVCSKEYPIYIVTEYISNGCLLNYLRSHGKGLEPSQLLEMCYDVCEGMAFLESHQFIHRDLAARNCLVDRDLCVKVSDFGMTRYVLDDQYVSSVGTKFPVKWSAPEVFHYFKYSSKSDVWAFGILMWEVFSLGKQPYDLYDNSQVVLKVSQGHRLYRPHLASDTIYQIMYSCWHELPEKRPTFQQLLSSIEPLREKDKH
Sequence of High affinity nerve growth factor receptor (Homo sapiens) (P04629 33-796 limits assumed): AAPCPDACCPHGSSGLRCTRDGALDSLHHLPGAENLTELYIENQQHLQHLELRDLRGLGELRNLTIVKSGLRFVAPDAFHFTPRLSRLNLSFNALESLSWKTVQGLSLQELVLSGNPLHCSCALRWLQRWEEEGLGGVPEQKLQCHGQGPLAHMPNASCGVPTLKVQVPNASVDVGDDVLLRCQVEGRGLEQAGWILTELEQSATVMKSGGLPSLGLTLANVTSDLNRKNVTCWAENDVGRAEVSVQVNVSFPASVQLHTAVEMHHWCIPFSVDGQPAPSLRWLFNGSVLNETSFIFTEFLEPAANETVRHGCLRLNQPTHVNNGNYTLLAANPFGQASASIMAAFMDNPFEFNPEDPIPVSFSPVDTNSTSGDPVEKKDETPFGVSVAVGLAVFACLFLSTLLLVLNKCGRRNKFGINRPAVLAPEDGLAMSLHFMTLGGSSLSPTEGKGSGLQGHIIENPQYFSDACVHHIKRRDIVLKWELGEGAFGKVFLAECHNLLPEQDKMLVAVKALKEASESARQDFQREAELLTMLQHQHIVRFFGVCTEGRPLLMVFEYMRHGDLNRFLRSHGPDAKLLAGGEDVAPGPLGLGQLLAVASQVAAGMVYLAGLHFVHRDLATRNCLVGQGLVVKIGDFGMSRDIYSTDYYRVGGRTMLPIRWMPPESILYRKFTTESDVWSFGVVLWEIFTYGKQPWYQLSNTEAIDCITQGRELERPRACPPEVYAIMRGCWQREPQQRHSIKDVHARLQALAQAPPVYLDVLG
Sequence of Serine/threonine-protein kinase MAK (Homo sapiens) (P20794 whole entry): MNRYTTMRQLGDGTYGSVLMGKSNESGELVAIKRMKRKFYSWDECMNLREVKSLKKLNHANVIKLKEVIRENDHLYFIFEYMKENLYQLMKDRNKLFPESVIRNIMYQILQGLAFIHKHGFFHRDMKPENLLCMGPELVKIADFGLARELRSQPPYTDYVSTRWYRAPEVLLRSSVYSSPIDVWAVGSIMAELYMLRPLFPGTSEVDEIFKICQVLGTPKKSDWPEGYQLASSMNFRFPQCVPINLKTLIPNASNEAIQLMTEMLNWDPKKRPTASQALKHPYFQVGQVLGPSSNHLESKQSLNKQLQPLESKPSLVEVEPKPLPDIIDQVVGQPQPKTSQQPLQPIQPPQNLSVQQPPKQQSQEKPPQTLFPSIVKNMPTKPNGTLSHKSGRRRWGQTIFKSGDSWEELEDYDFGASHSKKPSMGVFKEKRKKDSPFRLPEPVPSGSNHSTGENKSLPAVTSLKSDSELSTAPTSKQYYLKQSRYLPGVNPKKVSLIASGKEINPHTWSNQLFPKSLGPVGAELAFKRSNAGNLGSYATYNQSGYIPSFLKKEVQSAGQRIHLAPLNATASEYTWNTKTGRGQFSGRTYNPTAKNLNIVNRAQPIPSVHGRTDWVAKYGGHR
Sequence of Serine/threonine-protein kinase Chk1 (Homo sapiens) (O14757 whole entry): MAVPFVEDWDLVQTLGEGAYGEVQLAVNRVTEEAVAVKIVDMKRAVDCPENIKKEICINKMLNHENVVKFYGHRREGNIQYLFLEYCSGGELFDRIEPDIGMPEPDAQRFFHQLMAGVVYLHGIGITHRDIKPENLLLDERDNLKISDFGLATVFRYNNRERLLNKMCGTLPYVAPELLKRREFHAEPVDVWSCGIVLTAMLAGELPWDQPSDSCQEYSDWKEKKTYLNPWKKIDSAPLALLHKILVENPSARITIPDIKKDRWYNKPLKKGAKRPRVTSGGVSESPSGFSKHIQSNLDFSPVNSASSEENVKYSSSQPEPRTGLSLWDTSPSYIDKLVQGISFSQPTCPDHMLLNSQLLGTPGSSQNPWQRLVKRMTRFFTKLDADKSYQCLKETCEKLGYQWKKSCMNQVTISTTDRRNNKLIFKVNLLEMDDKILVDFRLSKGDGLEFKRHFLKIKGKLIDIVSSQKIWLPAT
Sequence of Serine/threonine-protein kinase 26 (Homo sapiens) (Q9P289 2-416 limits assumed): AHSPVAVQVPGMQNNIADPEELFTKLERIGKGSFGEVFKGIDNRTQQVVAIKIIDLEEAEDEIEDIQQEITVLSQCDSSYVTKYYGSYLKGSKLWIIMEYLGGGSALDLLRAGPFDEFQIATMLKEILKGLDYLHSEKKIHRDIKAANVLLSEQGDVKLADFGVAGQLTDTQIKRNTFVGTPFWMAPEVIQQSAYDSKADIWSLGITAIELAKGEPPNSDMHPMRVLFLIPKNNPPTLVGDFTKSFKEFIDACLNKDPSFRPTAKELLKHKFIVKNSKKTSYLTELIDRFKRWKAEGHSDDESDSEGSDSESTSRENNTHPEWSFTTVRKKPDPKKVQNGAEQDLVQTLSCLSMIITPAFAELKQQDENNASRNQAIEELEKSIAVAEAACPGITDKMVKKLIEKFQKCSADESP
Sequence of Misshapen-like kinase 1 (Homo sapiens) (Q8N4C8 whole entry, looked up): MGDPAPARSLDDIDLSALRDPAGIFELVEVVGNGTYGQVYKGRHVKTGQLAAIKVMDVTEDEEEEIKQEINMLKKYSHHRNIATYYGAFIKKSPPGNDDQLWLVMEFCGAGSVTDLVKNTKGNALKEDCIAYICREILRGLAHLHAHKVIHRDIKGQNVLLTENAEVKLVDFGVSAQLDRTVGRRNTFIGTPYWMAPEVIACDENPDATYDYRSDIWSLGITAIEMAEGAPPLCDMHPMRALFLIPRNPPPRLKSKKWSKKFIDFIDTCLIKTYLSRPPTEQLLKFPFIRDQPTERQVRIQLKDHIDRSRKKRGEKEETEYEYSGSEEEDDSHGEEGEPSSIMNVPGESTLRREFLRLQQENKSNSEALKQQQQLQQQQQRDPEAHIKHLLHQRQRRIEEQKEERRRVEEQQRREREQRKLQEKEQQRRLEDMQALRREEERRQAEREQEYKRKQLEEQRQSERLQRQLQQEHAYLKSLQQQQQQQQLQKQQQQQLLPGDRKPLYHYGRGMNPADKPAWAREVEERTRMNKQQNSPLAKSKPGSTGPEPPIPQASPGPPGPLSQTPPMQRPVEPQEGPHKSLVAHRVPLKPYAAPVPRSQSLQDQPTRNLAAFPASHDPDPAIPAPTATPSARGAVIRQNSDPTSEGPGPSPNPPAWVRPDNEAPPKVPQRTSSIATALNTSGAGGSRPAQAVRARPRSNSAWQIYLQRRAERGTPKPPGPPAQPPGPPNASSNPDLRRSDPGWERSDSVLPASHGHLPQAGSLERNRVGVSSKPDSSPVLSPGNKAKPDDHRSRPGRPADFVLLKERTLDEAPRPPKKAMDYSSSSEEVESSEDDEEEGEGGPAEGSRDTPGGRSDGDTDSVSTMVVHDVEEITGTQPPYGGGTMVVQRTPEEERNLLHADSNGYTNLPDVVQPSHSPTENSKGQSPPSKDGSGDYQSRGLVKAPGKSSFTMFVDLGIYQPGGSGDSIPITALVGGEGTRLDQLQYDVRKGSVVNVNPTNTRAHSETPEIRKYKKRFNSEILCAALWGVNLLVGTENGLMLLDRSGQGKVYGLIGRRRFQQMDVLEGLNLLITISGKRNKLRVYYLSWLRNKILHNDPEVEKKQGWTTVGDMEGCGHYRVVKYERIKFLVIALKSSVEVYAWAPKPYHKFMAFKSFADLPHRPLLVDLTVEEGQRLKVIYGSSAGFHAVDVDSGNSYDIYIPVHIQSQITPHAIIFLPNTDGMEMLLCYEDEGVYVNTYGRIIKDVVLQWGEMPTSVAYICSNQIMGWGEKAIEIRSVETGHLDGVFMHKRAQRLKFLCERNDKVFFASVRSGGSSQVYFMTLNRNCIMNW

In the case of `O=C(Nc1nc2cccc(C3CCC4(CC3)CN(C(=O)[C@@H]3CC3(F)F)C4)n2n1)C1CC1`, the Activity turned out to be 101% in data set [1]; 99% in data set [2]; 89% in data set [3]; 34% in data set [4]; 109% in the data set filed under Homo sapiens; 66% in data set [5]. Further, the Activity was 99% in data set [6]; 104% in data set [7]; 80% in [8]; 107% in data set [9]; 99% in data set [10]; 104% in data set [11]. Also, the Activity in [12] worked out at 93%; in the data set with Rattus norvegicus [14], 5.4; with Rattus norvegicus [15], 3.9; in the data set on Rattus norvegicus [16], 2.7; in data set [18], 4.99%. Also, the Vd in data set [13] worked out at 3.23 L/kg. Further, the outcome in the data set on Rattus norvegicus [17] was Active. The compound also yielded a Cmax at 24 h in the data set “in vivo [19]” of 2750 ng/mL. The bioavailability at 24 h in “in vivo [20]” came to 106%.
